Results from patent publication US10882860B2, “Treatment of osteoarthritis” (Samumed, LLC, priority 2015, dated 2021).

Experiments:
[1] = tested on: rats that underwent ACLT combined with medial meniscectomy (MMx); test: Efficacy of suspension in rat ACLT + pMMx model (OARSI score); assay type: in vivo; details: for OARSI score: vehicle 4.43
Experimental: The efficacy of the compound of Formula (I) on increasing cartilage thickness was determined in rats that underwent anterior cruciate ligament transection (ACLT) combined with medial meniscectomy (MMx).
Female rats (10-12 weeks old) were subjected to surgical severing of the anterior cruciate, medial collateral and medial meniscotibial ligaments (ACLT+pMMx). One-week post-surgery, after cartilage was allowed to degenerate, the rats were injected intra-articular (IA) with a single dose of a suspension of the compound of Formula (I) (0.1 μg or 0.3 μg or 1 μg). On Days 30, 60, and 90 after injection, joint cartilage, bone and plasma was isolated. Compound from these tissues was extracted using acetonitrile-methanol (70:30) and analyzed for concentrations using LC-MS.
13 weeks after the surgery (12 weeks post-IA injection), knees were isolated, fixed in 10% formalin, decalcified, embedded in paraffin, and sectioned. Sections were stained with Safranin O-Fast Green and histologically evaluated by two blinded observers based on OARSI scoring system (Pritzker et al. (2006) Osteoarthr. Cartil. 14:13-29). The OARSI score measures cartilage matrix loss, fissures, subchondral bone remodeling and bone cyst formation.

secreted GAG = test: Immunosuppression in chondrocytes: GAG content (DMMB); assay type: cell-based, human; details: cells stimulated with TNF-α and oncostatin M or IL-1β; 72 hours; FIG. 20A
Experimental: (§1) Human MSCs were plated in 10 cm dishes in chondrogenic induction medium (Lonza; DMEM, dexamethasone, ascorbate, insulin-transferrin-selenium [ITS supplement], gentamycin-amphotericin [GA-1000], sodium pyruvate, proline and L-glutamine) and treated with TGF-β3 (20 μg/mL) to induce chondrogenic differentiation. Cells from 4 dishes were pooled and re-plated in 24-well plates in Chondrogenic Induction Medium and treated with various concentrations of the compound of Formula (I). 4 hours later, cells were stimulated by adding TNF-α (20 μg/mL)+Oncostatin M ([…]) or IL-1β (10 μg/mL) and incubated at 37° C., 5% CO2 for 72 hours. Chondrocytes were digested with papain (Sigma). GAG content was measured using the dimethylmethylene blue (DMMB) kit (Chondrex). Briefly, the digested chondrocytes were mixed with DMMB in formate buffer and absorbance at 535 nm was measured using Cytation 3 (Biotek). Nitric oxide was measured using Greiss reagent (Promega) according to manufacturer's protocol.

nitric oxide release = test: Immunosuppression in chondrocytes: nitric oxide (Greiss reagent); assay type: cell-based, human; details: cells stimulated with TNF-α and oncostatin M or IL-1β; 72 hours; FIG. 20B
Experimental: as §1

CC(C)CC(=O)Nc1cncc(-c2ccc3[nH]nc(-c4nc5c(-c6cccc(F)c6)cncc5[nH]4)c3c2)c1 [compound of Formula (I)]
OARSI score ([1]; rat ACLT+pMMx, single IA 0.1 μg suspension, 12 weeks post-injection): 3.13 | OARSI score ([1]; rat ACLT+pMMx, single IA 0.3 μg suspension, 12 weeks post-injection): 2.15 | total OARSI score (against vehicle) ([1]; rat ACLT+pMMx, 0.1, 0.3 or 1 μg, 12 weeks post-injection): dose-dependent reduction | knee histology (Safranin O-Fast Green) ([1]; rat ACLT+pMMx, single IA injection, 12 weeks post-injection): Increased cartilage thickness, decreased fissures, and subchondral bone remodeling | cartilage in safranin O-stained knee section vs control knee ([1]; rat, 0.3 μg, after 12 weeks, FIG. 23B): increased cartilage | secreted GAG (secreted GAG): reduced | release of nitric oxide (nitric oxide release): reduced
